Reference: ChEMBL document CHEMBL5604063, “ASAP - DENV-2 NS2B-NS3 protease fluorescence dose response” (2024)
Where “and” joins values, the source holds several entries; their conditions need not be identical. Equal values may be shown once.

Assays:
Genome polyprotein [1] = biological target: T1, Genome polyprotein (dengue virus type 2, UniProt P29990); assay type: functional, Thailand/16681/1984
Genome polyprotein [2] = biological target: T1, Genome polyprotein; assay type: functional, Thailand/16681/1984; remark: listed apart in the source

T1 sequence (P29990 1346-1475 limits assumed): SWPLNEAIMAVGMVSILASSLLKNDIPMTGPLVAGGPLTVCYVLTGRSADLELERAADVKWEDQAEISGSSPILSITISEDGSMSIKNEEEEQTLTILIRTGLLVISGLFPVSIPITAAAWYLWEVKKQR
T1 sequence (P29990 1476-2093 limits assumed): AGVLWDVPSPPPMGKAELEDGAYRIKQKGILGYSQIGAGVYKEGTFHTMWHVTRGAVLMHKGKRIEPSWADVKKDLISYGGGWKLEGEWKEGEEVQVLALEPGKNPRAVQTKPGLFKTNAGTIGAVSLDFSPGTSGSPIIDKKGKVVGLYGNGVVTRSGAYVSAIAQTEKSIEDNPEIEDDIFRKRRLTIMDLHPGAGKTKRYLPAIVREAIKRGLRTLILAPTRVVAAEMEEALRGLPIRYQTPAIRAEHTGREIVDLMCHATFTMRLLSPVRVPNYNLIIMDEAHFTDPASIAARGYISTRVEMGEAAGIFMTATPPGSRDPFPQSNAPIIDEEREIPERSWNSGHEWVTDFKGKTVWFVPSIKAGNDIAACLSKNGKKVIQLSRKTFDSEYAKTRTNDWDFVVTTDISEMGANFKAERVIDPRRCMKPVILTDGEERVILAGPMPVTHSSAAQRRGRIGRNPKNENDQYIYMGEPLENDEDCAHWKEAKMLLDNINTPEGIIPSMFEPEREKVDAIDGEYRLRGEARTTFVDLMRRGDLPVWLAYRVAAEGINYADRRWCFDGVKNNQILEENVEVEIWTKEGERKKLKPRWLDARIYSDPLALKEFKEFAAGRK

| SMILES | IC50 (Genome polyprotein [1]) | IC50 (Genome polyprotein [2]) |
| --- | --- | --- |
| O=C1Nc2ccccc2[C@H]1N1CCC(c2nc3ccccc3s2)CC1 | > 100 µM | > 99.5 µM |
| CS(=O)(=O)NC(=O)c1cc(CN)cc(NC(=O)c2cc(Cl)cc(NC(=O)OCc3ccccc3)c2)c1 | > 100 µM | > 99.5 µM |
| O=C(Nc1cc(Cl)cc(C(=O)Nc2cccc(C3(C(=O)O)CCC3)c2)c1)OCc1ccccc1 | 12.5 µM and 12.8 µM | 24.6 µM |
| CNC(=O)C[C@H]1NCc2cc(NC(=O)c3cc(Cl)cc4[nH]ncc34)ccc21 | > 100 µM | > 99.5 µM |
| CCCN1C(=O)[C@](Nc2ccc3c(c2)CNC3)(C(N)=O)c2cc(Cl)ccc21 | > 100 µM | > 99.5 µM |
| NCc1cccc(NC(=O)[C@@H](NC(=O)OCc2ccccc2)c2ccc(OCc3cnccn3)cc2)c1 | > 100 µM | > 99.5 µM |
| O=C(Nc1cc([C@H]2CCOC2)ccn1)c1ccc2scnc2c1 | > 100 µM | > 99.5 µM |
| Cc1c(C(=O)Nc2cccc(C(=O)NC3CC3)c2)cc(C2CC2)n1C | > 100 µM | > 99.5 µM |
| O=C(NCC(F)F)[C@H](Nc1ccc2c(c1)CNC2)c1cc(Br)ccc1C1CC1 | > 100 µM | > 99.5 µM |
| Cc1c(C(=O)Nc2cc(-c3ccccn3)c(Br)cn2)cc(C2CC2)n1C | > 100 µM | > 99.5 µM |
| O=C(NCC(F)F)[C@H](Nc1cnc2c(c1)CNC2)c1cc(Cl)cc(C2CC2)c1 | > 100 µM | > 99.5 µM |
| CCCN1C(=O)[C@](C#N)(Nc2ccc3c(c2)CNC3)c2ccccc21 | > 100 µM | > 99.5 µM |
| O=C(Nc1cc2c(cc1C1CC1)CNC2)c1cc(F)cc2[nH]ncc12 | 62.5 µM | 70.9 µM |
| O=C(Nc1ccc2c(c1)CN(CC(F)F)C2)c1cc(Cl)cc2[nH]ncc12 | > 100 µM | 58.7 µM |
| O=C(Nc1cc(Cl)cc(C(=O)NCC2(CO)CCNCC2)c1)OCc1ccccc1 | > 100 µM | > 99.5 µM |
| NCc1cccc(NC(=O)c2cc(Cl)cc(NC(=O)OCc3ccccc3)c2)c1 | > 100 µM | 78.2 µM and 61.5 µM |
| O=C(Nc1cc(-c2cccnc2)ccn1)c1ccc(C2CC2)cc1 | > 100 µM | > 99.5 µM |
| O=c1[nH]c2cc(Cl)ccc2n1Cc1ccc(-c2nn[nH]n2)cc1 | > 100 µM | > 99.5 µM |
| Cc1c(C(=O)Nc2cccc(CN)c2)cc(C2CCC2)n1C | > 100 µM | > 99.5 µM |
| COc1cc(C(=O)Nc2cccc(CN)c2)cc(NC(=O)OCc2ccccc2)c1Cl | > 100 µM | > 99.5 µM |

| SMILES | IC50 (Genome polyprotein [1]) | IC50 (Genome polyprotein [2]) |
| --- | --- | --- |
| CS(=O)(=O)N(c1cc(Cl)cc(C(=O)Nc2cccc(CN)c2)c1)S(C)(=O)=O | > 100 µM | > 99.5 µM |
| O=C(Nc1ccc2c(c1)CNC2)c1cc(Cl)cc2[nH]c(-c3nc4c(s3)CCC4)nc12 | > 100 µM | 16.4 µM |
| COc1ccc(S(=O)(=O)n2nc(OC(=O)c3ccccc3)cc2N)cc1 | 2.53 µM and 2.17 µM and 3.95 µM and 3.07 µM (2×) and 2.23 µM and 3.29 µM and 3.81 µM and 2.28 µM | 3.47 µM |
| Cc1nnsc1CN1CCC([C@@H](NC(=O)OCc2ccccc2)C(=O)Nc2cccc(CN)c2)CC1 | > 100 µM | > 99.5 µM |
| CN(C)[C@@H]1CCC[C@@H](C(=O)Nc2cccc(CN)c2)C1 | > 100 µM | > 99.5 µM |
| NCc1nc(-c2ccc(NC(=O)c3cc(Cl)cc(NC(=O)OCc4ccccc4)c3)cc2)n[nH]1 | > 100 µM | 48.2 µM |
| CC[C@H](Cc1nnn[nH]1)c1ccc(NC(=O)c2cc(Cl)cc3[nH]ncc23)cc1 | > 100 µM | > 99.5 µM |
| NCc1cccc(NC(=O)[C@@H](NC(=O)OCc2ccccc2)c2cccc(-c3ccc(N)nc3)c2)c1 | > 100 µM | > 99.5 µM |
| CO[C@H]1CCCN(C(=O)c2ccnc(NC(=O)c3cc(C4CC4)n(C)c3C)c2)C1 | > 100 µM | > 99.5 µM |
| O=C(Nc1ccc2c(c1)CNC2)c1cccc(O)c1 | > 100 µM | > 99.5 µM |
| O=C(Nc1ccc2c(c1)S(=O)(=O)NC2)c1cc(Cl)cc2[nH]ncc12 | > 100 µM | > 99.5 µM |
| Cc1csc(CO[C@H]2CCN(C(=O)Nc3ccc4c(c3)CNC4)C2)n1 | > 100 µM | > 99.5 µM |
| COc1ccc2nc(C)cc(C(=O)Nc3cccc(CN)c3)c2c1 | > 100 µM | > 99.5 µM |
| NCCCc1ccccc1NC(=O)c1cc(Cl)cc(NC(=O)OCc2ccccc2)c1 | > 100 µM | > 99.5 µM |
| O=C(Nc1ccc2c(c1)CNC2)c1cccnc1 | > 100 µM | > 99.5 µM |
| O=C(Nc1cc(Cl)cc(C(=O)Nc2cccc3c2OC[C@H](C(=O)O)C3)c1)OCc1ccccc1 | 19.1 µM | 50.4 µM |
| O=C(Nc1cc2c(c(C3=CCS(=O)(=O)CC3)c1)CNC2)c1cc(F)cc2[nH]ncc12 | 34.6 µM and 46.6 µM | 41.1 µM and 29.7 µM |
| CCc1cc2c(cc1NC(=O)c1cc(F)cc3[nH]ncc13)CNC2 | > 100 µM | > 99.5 µM |
| CCOC(=O)[C@H](Nc1ccc2c(c1)CNC2)c1cc(Cl)cc(C2CC2)c1 | 89.8 µM | 76.7 µM |
| O=C1Cc2c(cccc2C(=O)Nc2ccn(C[C@H]3CCOC3)n2)N1 | > 100 µM | > 99.5 µM |

| SMILES | IC50 (Genome polyprotein [1]) | IC50 (Genome polyprotein [2]) |
| --- | --- | --- |
| NCc1cccc(/C=C/c2cc(Cl)cc(NC(=O)OCc3ccccc3)c2)c1 | > 100 µM | > 99.5 µM |
| C[C@H](CC(=O)O)N(C)C(=O)c1cc(Cl)cc(NC(=O)OCc2ccccc2)c1 | > 100 µM | > 99.5 µM |
| NCc1cccc(NC(=O)[C@@H](NC(=O)OCc2ccccc2)c2ccc(OCC3CCOCC3)cc2)c1 | > 100 µM | 86 µM |
| O=C(Nc1cc(-c2cccnc2)ccn1)c1cnn2c1CCCC2 | 16.5 µM and 19.7 µM | 18 µM and 13.8 µM |
| Clc1ccc2[nH]cc(Cc3ccc4c(c3)CNC4)c2c1 | > 100 µM | > 99.5 µM |
| Cc1ccc(S(=O)(=O)N2Cc3ccccc3C[C@@H](C(=O)Nc3cccc(CN)c3)C2)cc1 | > 100 µM | 75.2 µM |
| Cn1cc(-c2cc(CN)cc([C@@H]3C[C@H]3c3cc(Cl)cc(NC(=O)OCc4ccccc4)c3)c2)cn1 | 51 µM | 42 µM |
| NCCc1cccc(NC(=O)[C@H]2[C@H]3CCCCC[C@H]3[C@H]2NC(=O)OCc2ccccc2)c1 | 12.1 µM | 8.41 µM and 7.22 µM |
| O=C(Nc1ccc2c(c1)CNC2)c1cc(F)cc2[nH]c(-c3ccccc3)nc12 | 5.75 µM | 7.96 µM and 7.05 µM |
| N#C[C@H](Nc1ccc(CC(=O)O)cn1)c1cc(Cl)cc(C2CC2)c1 | > 100 µM | > 99.5 µM |
| N#C[C@H](Nc1ccc2c(c1)CNC2)c1ccnc(C(F)(F)F)c1 | > 100 µM | > 99.5 µM |
| COc1ccccc1Cn1cnc2cc(C(=O)Nc3ccc4c(c3)CNC4)ccc21 | > 100 µM | > 99.5 µM |
| Cc1c(C(=O)Nc2cc(-c3cccnc3)ccn2)cc(C2CC2)n1C | 6.7 µM and 9.67 µM | 9.09 µM and 8.4 µM and 6.31 µM |
| C[C@@H](NCc1c[nH]c2ccccc12)c1cscn1 | > 100 µM | > 99.5 µM |
| Cc1cc(N2CCC(NC(=O)c3cccc4c3CC(=O)N4)CC2)[nH]n1 | > 100 µM | > 99.5 µM |
| O=C(Nc1cc(Cl)cc(C(=O)Nc2ccc(C3CNC3)cc2)c1)OCc1ccccc1 | > 100 µM | 39.2 µM |
| N#C[C@H](Nc1ccc2c(c1)CNC2)c1cccc2ncccc12 | > 100 µM | > 99.5 µM |
| Cn1nnnc1-c1cccc(NC(=O)c2cc(Cl)cc(NC(=O)OCc3ccccc3)c2)c1 | > 100 µM | > 99.5 µM |
| CCn1c(=O)c(N2CC[C@H](CO)C2)nc2ccc(C(=O)N(C)C)cc21 | > 100 µM | > 99.5 µM |
